Molecular target: T1, Human Akt1 (UniProt entry P31749) (Homo sapiens, UniProt P31749, C296S/C310S/C344S/E49C)
T1 construct: made in house; host or cells: baculovirus, TriEx Sf9 cells
Test: iFLiK assay (fluorophore-labeled Akt1 binding assay)
Conditions: for effect on PyMPO fluorescence (emission spectrum): PyMPO-labeled Akt1
Protocol: Measurements were carried out in black 384-well plates (Greiner Bio One). Labeled Akt1 was diluted to 200 nM in the measurement buffer consisting of 50 mM HEPES pH 7.4, 200 mM NaCl and 0.01% Triton-X 100. Dilution series of candidate compounds were prepared in DMSO at 21X the final desired concentration. Compounds (0.5 µL) were then mixed with labeled Akt1 (10 µL) in triplicates and with measurement buffer only in quadruplicates at 12 different concentrations to achieve final compound concentrations ranging from 0.8 nM to […]. Each well contained 5% v/v DMSO after mixing. Plates were then covered with an adhesive plastic foil and incubated for 2 h at RT prior to measurement of emission intensities at fluorophore-specific wavelengths (Table 1) using a Tecan Infinite M1000 plate reader. Compound auto-fluorescence was compensated by subtraction of the average background signals obtained in the absence of labeled kinase. The respective assay readout for the various Akt-fluorophore conjugates specified in Table 1 were fit to a Hill 4-parameter equation to determine Kd values for allosteric Akt ligands. Each reaction was performed in triplicate and at least three independent measurements of each Kd were determined for each ligand. Table 1: Overview of fluorophore probes.
Screening initiatives were carried out in black 384-well plates (Greiner Bio One). PyMPO-labeled Akt1 was diluted to 200 nM in the measurement buffer consisting of 50 mM HEPES pH 7.4, 200 mM Nacl and 0.01% Triton-X 100. Each candidate compound was prepared in DMSO at 210 µM. Compounds (0.5 µL) were then mixed each with labeled Akt1 (10 µL) and with measurement buffer only to achieve final compound concentrations of 10 µM. Each well contained 5% v/v DMSO after mixing. Plates were then covered with an adhesive plastic foil and incubated for 2 h at RT prior to measurement using a Tecan Infinite M1000 plate reader emission intensities at 508 nm and 638 nm, using both 419 nm and 440 nm for excitation. Compound auto-fluorescence was compensated by subtraction of the average background signals obtained in the absence of labeled kinase. Ratio of fluorescence intensities fl638/fl508 were calculated from the background-subtracted values. For hit picking criteria, see Table 2 below.

T1 sequence (P31749 whole entry E49C/C296S/C310S/C344S, one chain of several): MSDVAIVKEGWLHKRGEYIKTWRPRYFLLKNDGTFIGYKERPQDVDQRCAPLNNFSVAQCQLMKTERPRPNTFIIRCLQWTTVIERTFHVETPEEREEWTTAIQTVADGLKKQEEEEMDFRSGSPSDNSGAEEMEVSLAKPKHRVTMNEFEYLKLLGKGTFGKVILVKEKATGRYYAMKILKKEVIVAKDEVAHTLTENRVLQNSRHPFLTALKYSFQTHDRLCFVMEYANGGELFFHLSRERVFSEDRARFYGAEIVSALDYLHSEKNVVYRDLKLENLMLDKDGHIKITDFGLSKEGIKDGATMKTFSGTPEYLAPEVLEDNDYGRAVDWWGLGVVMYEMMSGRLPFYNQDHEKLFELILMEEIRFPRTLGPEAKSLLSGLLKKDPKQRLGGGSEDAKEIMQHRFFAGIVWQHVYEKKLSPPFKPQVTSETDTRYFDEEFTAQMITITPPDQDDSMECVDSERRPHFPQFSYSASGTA

effect on PyMPO fluorescence (emission spectrum)	response of the labeled kinase (collection of fluorophore-labeled kinases, dilution series 0.8 nM to 50 µM)	SMILES
no effect		NC1(Cc2ccc(Cl)cc2)CCN(c2ncnc3[nH]ccc23)CC1 [CCT128930]
no effect	unresponsive	CCn1c(-c2nonc2N)nc2c(C#CC(C)(C)O)ncc(OC[C@H]3CCCNC3)c21 [GSK690693]
bathochromic shift		NC1(c2ccc(-c3nc4ccn5c(=O)[nH]nc5c4cc3-c3ccccc3)cc2)CCC1 [MK-2206]
reduction of the fluorescence intensity		O=C(O[C@@H]1Cc2c(O)cc(O)cc2O[C@@H]1c1cc(O)c(=O)c2c(O)c(O)cc([C@H]3Oc4cc(O)cc(O)c4C[C@H]3O)c2c1)c1cc(O)c(O)c(O)c1 [XX8]

— EP2810648A1, “Targeting domain-domain interaction for the identification of kinase modulators” (Rauh, Daniel, priority 2013, dated 2014)
